# Results taken from patent US6716833B2, “Acetylenic α-amino acid-based sulfonamide hydroxamic acid tace inhibitors” (priority 1999, dated 2004).
# Structures can show the parent of a compound that is named as a salt. Where two headings read alike, the source gives them in different places.
# Tests used:
# Type in all cases: biochemical
# MMP-9 = MMP-9 (Homo sapiens, UniProt P14780); assay: MMP-9 inhibition (thiopeptide or fluorescent peptide substrate); settings: read-out: MMP-9 IC50
# [1] = target: TNF-α converting enzyme (TACE) (Homo sapiens, UniProt P78536); assay: TACE inhibition (fluorescent peptidyl substrate); settings: read-out: TACE IC50
# Sequence of TNF-α converting enzyme (TACE) (P78536 215-824, species assumed): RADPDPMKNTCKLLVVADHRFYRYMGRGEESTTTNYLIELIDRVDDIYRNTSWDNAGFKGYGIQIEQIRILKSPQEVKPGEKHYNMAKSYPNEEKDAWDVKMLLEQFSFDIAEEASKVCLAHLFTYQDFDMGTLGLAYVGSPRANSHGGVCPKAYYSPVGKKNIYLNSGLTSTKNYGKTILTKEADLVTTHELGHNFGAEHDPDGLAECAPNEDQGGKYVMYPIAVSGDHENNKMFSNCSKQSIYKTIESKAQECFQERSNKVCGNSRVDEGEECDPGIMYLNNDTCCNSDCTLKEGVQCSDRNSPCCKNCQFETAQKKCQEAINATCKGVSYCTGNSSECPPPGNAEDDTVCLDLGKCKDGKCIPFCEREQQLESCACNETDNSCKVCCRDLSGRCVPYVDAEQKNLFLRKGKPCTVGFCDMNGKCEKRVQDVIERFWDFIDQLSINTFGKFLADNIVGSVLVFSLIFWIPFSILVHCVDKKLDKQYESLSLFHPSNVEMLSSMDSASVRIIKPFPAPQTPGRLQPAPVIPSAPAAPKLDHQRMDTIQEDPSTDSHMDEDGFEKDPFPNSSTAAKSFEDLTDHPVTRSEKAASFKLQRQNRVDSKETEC
# MMP-13 = MMP-13 (Homo sapiens, UniProt P45452); assay: MMP-13 inhibition (thiopeptide or fluorescent peptide substrate)
# MMP-1 = target: T1, MMP-1 (Homo sapiens, UniProt P03956); assay: MMP-1 inhibition (thiopeptide or fluorescent peptide substrate); settings: read-out: MMP-1 IC50
# T1 sequence (P03956 100-469): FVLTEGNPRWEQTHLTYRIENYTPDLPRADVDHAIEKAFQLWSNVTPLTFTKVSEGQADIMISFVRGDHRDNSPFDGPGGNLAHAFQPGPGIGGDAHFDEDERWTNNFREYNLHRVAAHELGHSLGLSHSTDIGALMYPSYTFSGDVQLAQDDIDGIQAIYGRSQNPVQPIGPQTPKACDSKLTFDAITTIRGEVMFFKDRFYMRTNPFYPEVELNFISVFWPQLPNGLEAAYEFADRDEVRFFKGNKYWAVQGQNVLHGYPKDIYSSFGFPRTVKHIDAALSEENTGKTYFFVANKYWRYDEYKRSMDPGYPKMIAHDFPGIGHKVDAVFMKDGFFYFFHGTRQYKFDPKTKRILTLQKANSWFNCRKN
# [2] = Table 10, read-out: MMP-13 IC50
# Sequence of MMP-9 (P14780 94-707): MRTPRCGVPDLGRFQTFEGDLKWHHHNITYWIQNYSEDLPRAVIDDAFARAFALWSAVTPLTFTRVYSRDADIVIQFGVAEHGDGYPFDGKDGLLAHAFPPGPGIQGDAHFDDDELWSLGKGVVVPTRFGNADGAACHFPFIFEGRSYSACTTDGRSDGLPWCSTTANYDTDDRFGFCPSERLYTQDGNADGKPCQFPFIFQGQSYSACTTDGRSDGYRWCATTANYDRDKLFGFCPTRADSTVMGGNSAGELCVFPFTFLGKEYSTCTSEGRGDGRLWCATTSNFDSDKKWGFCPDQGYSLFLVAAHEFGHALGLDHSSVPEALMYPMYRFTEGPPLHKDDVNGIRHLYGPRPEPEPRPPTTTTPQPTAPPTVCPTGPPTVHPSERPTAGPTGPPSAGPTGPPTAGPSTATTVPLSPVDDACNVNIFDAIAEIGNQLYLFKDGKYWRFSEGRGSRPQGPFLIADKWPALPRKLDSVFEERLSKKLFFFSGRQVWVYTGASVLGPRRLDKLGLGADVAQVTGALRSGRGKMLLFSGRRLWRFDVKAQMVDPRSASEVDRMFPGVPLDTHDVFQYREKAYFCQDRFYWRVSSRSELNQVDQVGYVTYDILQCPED
IC50 (MMP-9),IC50 [1],IC50 (MMP-13; read-out: MMP-13 IC50),IC50 (MMP-1),Structure (SMILES),other results
53 nM,104 nM,37 nM,187 nM,"CC#CCOc1ccc(S(=O)(=O)N(CC#CCNC)C(C(=O)NO)C(C)C)cc1 (stereo not shown) [Example 127, 2-{{[4-(2-Butynyloxy)phenyl]sulfonyl}[4-(methylamino)-2-butynyl]amino}-N-hydroxy-3-methylbutanamide]",
184 nM,376 nM,212 nM,2370 nM,"CC#CCOc1ccc(S(=O)(=O)N(C)[C@@H](C(=O)NO)C2CCC(N(CC)CC)CC2)cc1 (stereo partly drawn) [Example 128, ((2R)-{[4-(2-Butynyloxy)phenyl]sulfonyl}(methyl)amino)[(4-diethylamino)cyclohexyl]-N-hydroxyethamide]",
26 nM,60 nM,5.9 nM,16 nM,"CC#CCOc1ccc(S(=O)(=O)N(C)C(C(=O)NO)C(C)(C)SCCn2ccnc2)cc1 (stereo not shown) [Example 144, 2-({[4-(2-Butynyloxy)phenyl]sulfonyl)(methyl)amino]-N-hydroxy-3 Methyl-3-{[2-(1H-imidazol-1-yl)ethyl]sulfanyl}butanamide]",
103 nM,86 nM,9.2 nM,45 nM,"CC#CCOc1ccc(S(=O)(=O)N(C)C(C(=O)NO)C(C)(C)SCCN2CCOCC2)cc1 (stereo not shown) [Example 140, 2-({[4-(2-Butynyloxy)phenyl]sulfonyl)(methyl)amino]-N-hydroxy-3 Methyl-3-[(2(4-morpholinylethyl)sulfanyl]-butanamide Hydrochloride]",
48 nM,25 nM,41 nM,469 nM,"CC#CCOc1ccc(S(=O)(=O)N(C)C(C(=O)NO)c2ccc(OCCCN)cc2)cc1 (stereo not shown) [Example 188, 2-[4-(3-Aminopropoxy)phenyl]-2-[{[4-(2-butynyloxy)phenyl]sulfonyl}(methyl)amino]-N-hydroxyacetamide]",
569 nM,9.4 nM,73 nM,~10000 nM,"CC#CCOc1ccc(S(=O)(=O)N[C@@H](C(=O)NO)c2ccc(OCCNC(C)=O)cc2)cc1 [Example 201, (2R)-2-{4-[2-(Acetylamino)ethoxy]phenyl}-2-({[4-(2-butynyloxy)phenyl]sulfonyl}amino)-N-hydroxyethanamide]",
37 nM,32 nM,29 nM,527 nM,"CC#CCOc1ccc(S(=O)(=O)N(C)[C@@H](C(=O)NO)c2ccc(O[C@H]3CCNC3)cc2)cc1 [Example 190, (2R)-2-[{[4-(2-Butynyloxy)phenyl]sulfonyl}(methyl)amino]-N-hydroxy-2-{4-[(3S)-pyrrolidinyloxy]phenyl}ethanamide]",
55 nM,40 nM,42 nM,497 nM,"CC#CCOc1ccc(S(=O)(=O)N(C)C(C(=O)NO)c2ccc(OCCN3CCCC3)cc2)cc1 (stereo not shown) [Example 183, 2-[{[4-(2-Butynyloxy)phenyl]sulfonyl}(methyl)amino]-N-hydroxy-2-{4-[2-(1-pyrrolidinyl)ethoxy]phenyl}acetamide]",
3.7 nM,74 nM,,,"CC#CCOc1ccc(S(=O)(=O)N(C)C(C(=O)NO)C(C)(C)SCc2cccnc2)cc1 (stereo not shown) [Example 152, 2-[(4-but-2-ynyloxy-Benenesulfonyl)-methyl-amino]-N-hydroxy-3-methyl-3-(pyridin-3-ylmethylsulfanyl)-butyramide]",IC50 (MMP-13; MMP-13 IC50): 1.7 nM
34 nM,265 nM,9.3 nM,599 nM,"CC#CCOc1ccc(S(=O)(=O)N(C)C(C(=O)NO)c2ccc(OCCNC(=O)OC(C)(C)C)cc2)cc1 (stereo not shown) [Example 180, tert-Butyl 2-(4-[1-[{[4-(2-Butynyloxy)phenyl]sulfonyl}(methyl)amino]-2-(hydroxyamino)-2-oxoethyl]phenoxy}ethylcarbamate]",
142 nM,21 nM,66 nM,921 nM,CC#CCOc1ccc(S(=O)(=O)N(CC#CCN2CCN(C)CC2)C(C)C(=O)NO)cc1 (stereo not shown) [Example 135],
55 nM,35 nM,11 nM,434 nM,"CC#CCOc1ccc(S(=O)(=O)N(C)C(C(=O)NO)c2ccc(OCCN3CCCC3=O)cc2)cc1 (stereo not shown) [Example 184, 2-[{[4-(2-Butynyloxy)phenyl]sulfonyl}(methyl)amino]-N-hydroxy-2-{4-[2-(2-oxo-1-pyrrolidinyl)ethoxy]phenyl}acetamide]",
25 nM,83 nM,,287 nM,"CC#CCOc1ccc(S(=O)(=O)N2CCN(Cc3ccccc3)CCC2C(=O)NO)cc1 (stereo not shown) [Example 290, 1-Benzyl-4-{[4-(2-butynyloxy)phenyl]sulfonyl}-N-hydroxy-1,4-diazepane-5-carboxamide]",

# The remaining lines, values behind:
Structure (SMILES),IC50 (MMP-9),IC50 [1],IC50 (MMP-13; read-out: MMP-13 IC50),IC50 (MMP-1),other results
"CC(C)(C)OC(=O)NCCC#CCOc1ccc(S(=O)(=O)N2CCSC(C)(C)C2C(=O)NO)cc1 (stereo not shown) [Example 245, tert-Butyl 5-[4-({3-[(Hydroxyamino)carbonyl]-2,2-dimethyl-4-thiomorpholinyl}sulfonyl)phenoxy]-3-pentynylcarbamate]",,,,,IC50 (MMP-9; Table 10): 2380 nM; IC50 ([1]; Table 10): 112 nM; IC50 (MMP-13; [2]): 6.6 nM; IC50 (MMP-1; Table 10): 300 nM
"CC1(C)SCCN(S(=O)(=O)c2ccc(OCC#CCCOC3CCCCO3)cc2)C1C(=O)NO (stereo not shown) [Example 243, N-Hydroxy-2,2-dimethyl-4-[(4-{[5-(tetrahydro-2H-pyran-2-yloxy)-2-pentynyl]oxy}phenyl)sulfonyl]-3-thiomorpholine Carboxamide]",,,,,IC50 (MMP-9; Table 10): 178 nM; IC50 ([1]; Table 10): 87 nM; IC50 (MMP-13; [2]): 4.1 nM; IC50 (MMP-1; Table 10): 194 nM
"CC#CCOc1ccc(S(=O)(=O)N2C[C@@H](CN)SC(C)(C)[C@@H]2C(=O)NO)cc1 [Example 275, (3S,6R)-trans-6-(Aminomethyl)-4-{[4-(2-butynyloxy)phenyl]sulfonyl}-N-hydroxy-2,2-dimethyl-3-thiomorpholinecarboxamide Hydrochloride]",,,,,"IC50 (MMP-9; Table 11): 22 nM; IC50 ([1]; Table 11): 128 nM; IC50 (MMP-13; Table 11, read-out: MMP-13 IC50): 16 nM; IC50 (MMP-1; Table 11): 30 nM"
"CC#CCOc1ccc(S(=O)(=O)N2CCN(C(=O)Nc3ccc(OC)cc3)CC2C(=O)NO)cc1 (stereo not shown) [Example 221, 4-{[4-(2-Butynyloxy)phenyl]sulfonyl}-N-3-hydroxy-N-1-(4-methoxyphenyl)-1,3-piperazinedicarboxamide]",576 nM,69 nM,182 nM,1510 nM,
"CC#CCOc1ccc(S(=O)(=O)N2CCN(C(=O)CN)CC2C(=O)NO)cc1 (stereo not shown) [Example 230, 4-Aminoacetyl-1-(4-but-2-ynyloxy-benzenesulfonyl)-piperazine-2-carboxylic Acid Hydroxyamide]",1230 nM,127 nM,410 nM,8500 nM,
"CC#CCOc1ccc(S(=O)(=O)N2CCNCC2C(=O)NO)cc1 (stereo not shown) [Example 214, 1-(4-but-2-ynyloxy-Benzenesulfonyl)-piperazine-2-carboxylic Acidhydroxyamide]",14 nM,23 nM,7.6 nM,,
"CC#CCOc1ccc(S(=O)(=O)N2CCN(C(=O)OCc3ccccc3)CC2C(=O)NO)cc1 (stereo not shown) [Example 219, Benzyl 4-{[4-(2-Butynyloxy)phenyl]sulfonyl}-3-[(hydroxyamino)carbonyl]-1-piperazinecarboxylate]",45 nM,,10 nM,176 nM,
"CC1(C)SCCN(S(=O)(=O)c2ccc(OCC#CCN)cc2)C1C(=O)NO (stereo not shown) [Example 265, 4-({4-[(4-Amino-2-butynyl)oxy]phenyl}sulfonyl)-N-hydroxy-2,2-dimethyl-3-thiomorpholine Carboxamide]",,,,,IC50 (MMP-9; Table 10): 8.7 nM; IC50 (MMP-13; [2]): 7.5 nM; IC50 (MMP-1; Table 10): 97 nM
"CC#CCOc1ccc(S(=O)(=O)N2CCN(C(=O)N(CC)CC)CC2C(=O)NO)cc1 (stereo not shown) [Example 216, 4-(4-but-2-ynyloxy-Benzenesulfonyl)-piperazine-1,3-dicarboxylic Acid 1-Diethylamide 3-Hydroxyamide]",221 nM,28 nM,97 nM,,
"CC#CCOc1ccc(S(=O)(=O)N2CCN(C(=O)OC)CC2C(=O)NO)cc1 (stereo not shown) [Example 228, 4-(4-but-2-ynyloxy-Benzenesulfonyl)-3-hydroxycarbamoyl-piperazine-1-carboxylic Acid Methyl Ester]",71 nM,9 nM,9.2 nM,,
"CC#CCOc1ccc(S(=O)(=O)N2CCN(C(=O)c3cccs3)CC2C(=O)NO)cc1 (stereo not shown) [Example 226, 1-(4-but-2-ynyloxy-Benzenesulfonyl)-4-(thiophene-2-carbonyl)-piperazine-2-carboxylic Acid Hydroxyamide]",251 nM,12 nM,119 nM,,
"CC1(C)SCCN(S(=O)(=O)c2ccc(OCC#Cc3ccccc3)cc2)[C@H]1C(=O)NO [Example 254, (3S)-N-Hydroxy-2,2-dimethyl-4-({4-[(3-phenyl-2-propynyl)oxy]phenyl}sulfonyl)-3-thiomorpholine Carboxamide]",,,,,IC50 ([1]; Table 10): 173 nM; IC50 (MMP-13; [2]): 11 nM; IC50 (MMP-1; Table 10): 13 nM
CC#CCOc1ccc(S(=O)(=O)N2CCCSC(C)(C)[C@@H]2C(=O)NO)cc1 [Example 173],,111 nM,16 nM,20 nM,
